Measurements: PubChem BioAssay (NCI)
Where “and” joins values, the source holds several entries; their conditions need not be identical. Identical values can stand only once.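 1) Cells in 96-well plates. 2) Compound, 48 h, 5 concentrations. 3) Linear interpolation between surrounding doses. 4) Unreached endpoint = highest concentration. The concentration for 50% growth inhibition is given as GI50. TGI: total growth inhibition.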

Legend:
Experiment in all cases: NCI tumour cell line growth inhibition, 48 h
[1] = tested on: HOP-92 NSCLC
[2] = tested on: OVCAR-3 ovarian
[3] = tested on: SK-MEL-2 melanoma
[4] = tested on: HCT-15 colon
[5] = tested on: MDA-MB-231 breast
[6] = tested on: KM12 colon
[7] = tested on: SR leukemia
[8] = tested on: UO-31 renal
[9] = tested on: OVCAR-4 ovarian
[10] = tested on: EKVX NSCLC

Work on COc1ccc2c(c1)c(CC(=O)[Se]C)c(C)n2C(=O)c1ccc(Cl)cc1 yielded a GI50 [1] greater than 0.336 µM, a TGI [1] greater than 0.533 µM and a GI50 [2] greater than 0.367 µM. For the same compound, the TGI [2] was greater than 0.583 µM, the GI50 [3] was greater than 0.436 µM and the TGI [3] was greater than 0.794 µM. It also gave a GI50 [4] greater than 0.506 µM, a TGI [4] greater than 1 µM and a GI50 [5] greater than 0.383 µM. For the same compound, the TGI [5] was greater than 0.637 µM, the GI50 [6] was greater than 0.577 µM and the TGI [6] was greater than 1 µM. The GI50 [7] was greater than 0.507 µM, the TGI [7] was greater than 1 µM and the TGI [8] was greater than 0.523 µM. The GI50 [9] was greater than 0.443 µM, the TGI [9] was greater than 1 µM and the GI50 [10] was greater than 0.229 µM. For the same compound, the TGI [10] was greater than 0.459 µM.

CC(C)CCCC(C)[C@H]1CCC2[C@@H]3CCC4Cc5nc6c(nc5C[C@]4(C)C3CC[C@@]21C)CC1CC[C@@H]2C(CC[C@@]3(C)C2CC[C@@H]3C(C)CCCC(C)C)[C@@]1(C)C6 (stereo partly drawn) showed a TGI [1] greater than 100 µM, a TGI [2] greater than 100 µM and a TGI [3] greater than 100 µM. The TGI [4] was greater than 100 µM, the TGI [5] was greater than 100 µM and the TGI [6] was greater than 100 µM. The TGI [7] was greater than 100 µM, the TGI [8] was greater than 100 µM and the TGI [9] was greater than 100 µM. It also gave a TGI [10] greater than 100 µM.

CC1=C(C(=O)Nc2ccc3n[nH]c(C)c3c2)C(c2ccc(C(F)(F)F)cc2)CC(=O)N1 (stereo not drawn) was tested, and the GI50 [1] was 0.0117 µM, the TGI [1] was 1.46 µM and the GI50 [2] was greater than 25 µM. The TGI [2] was greater than 25 µM, the GI50 [3] was greater than 25 µM and the TGI [3] was greater than 25 µM. It also gave a GI50 [4] greater than 25 µM, a TGI [4] greater than 25 µM and a GI50 [5] of 15.9 µM. The TGI [5] was greater than 25 µM, the GI50 [6] was 14 µM and the TGI [6] was greater than 25 µM. It also gave a GI50 [7] greater than 16.4 µM, a TGI [7] greater than 25 µM and a GI50 [8] of 3.91 µM. It also gave a TGI [8] greater than 25 µM, a GI50 [9] of 16 µM and a TGI [9] greater than 25 µM. For the same compound, the GI50 [10] was 5.89 µM and the TGI [10] was greater than 25 µM.

CC1(C)C2CCC13C(=O)C1OC3(C2)C2C(=O)c3ccccc3C(=O)C12 (stereo not drawn) was tested, and the GI50 [1] was greater than 100 µM, the TGI [1] was greater than 100 µM and the GI50 [3] was greater than 100 µM. The TGI [3] was greater than 100 µM, the GI50 [4] was 79.4 µM and the TGI [4] was greater than 100 µM. The GI50 [5] was 2.44 µM, the TGI [5] was 7.98 µM and the GI50 [6] was 82.9 µM. It also gave a TGI [6] greater than 100 µM, a GI50 [7] greater than 100 µM and a TGI [7] greater than 100 µM. For the same compound, the GI50 [8] was greater than 100 µM and the TGI [8] was greater than 100 µM.

Compound O=C(Nc1cccc(-n2cc(-c3ccncc3)c(-c3ccc(Cl)c(O)c3)n2)c1)Nc1cc(C(F)(F)F)cc(C(F)(F)F)c1 has a GI50 [1] of 0.196 µM, a TGI [1] of 1.15 µM and a GI50 [2] of 0.345 µM. For the same compound, the TGI [2] was 1.11 µM, the GI50 [3] was 0.999 µM and the TGI [3] was 2.18 µM. The GI50 [4] was 0.591 µM, the TGI [4] was 3.01 µM and the GI50 [5] was 0.768 µM. The TGI [5] was 1.66 µM, the GI50 [6] was 0.511 µM and the TGI [6] was 1.35 µM. It also gave a GI50 [7] of 0.876 µM, a TGI [7] of 3.22 µM and a GI50 [8] of 0.676 µM. For the same compound, the TGI [8] was 1.77 µM, the GI50 [9] was 0.795 µM and the TGI [9] was 3.28 µM.

For C=C(C(N)=O)c1ccc([N+](=O)[O-])o1, the TGI [1] was 19.5 µM, the TGI [2] was 22.4 µM and the TGI [3] was 22.5 µM. It also gave a TGI [4] of 27.9 µM, a TGI [5] of 29.8 µM and a TGI [6] of 34.8 µM. The TGI [7] was 36.9 µM, the TGI [9] was 29 µM and the TGI [10] was 42 µM.

In the case of O=C(/C=C/Sc1cc(C(F)(F)F)cc(C(F)(F)F)c1)c1ccc(Cl)cc1, the GI50 [2] is reported as 1.48 µM, the TGI [2] is reported as 4.19 µM and the GI50 [3] is reported as 31.1 µM. For the same compound, the TGI [3] was 63.1 µM, the GI50 [4] was 3.04 µM and the TGI [4] was 11.6 µM. For the same compound, the GI50 [5] was 2.51 µM, the TGI [5] was 8.67 µM and the GI50 [6] was 13.5 µM. The TGI [6] was 27.8 µM, the GI50 [7] was 2.02 µM and the TGI [7] was 5.32 µM. The GI50 [8] was 2.85 µM, the TGI [8] was 6.05 µM and the GI50 [9] was 13.5 µM. For the same compound, the TGI [9] was 30.7 µM, the GI50 [10] was 14.3 µM and the TGI [10] was 30.5 µM.

Cc1cc([N+](=O)[O-])c(NS(=O)(=O)c2cccc(C(=O)O)c2)cc1-c1cccnc1 showed a GI50 [1] greater than 100 µM, a TGI [1] greater than 100 µM and a GI50 [2] greater than 100 µM. The TGI [2] was greater than 100 µM, the GI50 [4] was greater than 100 µM and the TGI [4] was greater than 100 µM. It also gave a GI50 [5] greater than 100 µM, a TGI [5] greater than 100 µM and a GI50 [6] of 35.1 µM. It also gave a TGI [6] greater than 100 µM, a GI50 [7] greater than 100 µM and a TGI [7] greater than 100 µM. The GI50 [8] was greater than 100 µM, the TGI [8] was greater than 100 µM and the GI50 [9] was greater than 100 µM. It also gave a TGI [9] greater than 100 µM, a GI50 [10] greater than 100 µM and a TGI [10] greater than 100 µM.

Work on COc1ccc2c(c1)NC1=C(C(=O)OC1)C2c1cc(OC)c2c(c1)OCO2 (stereo not drawn) yielded a GI50 [1] of 1.36 µM, a TGI [1] greater than 87.9 µM and a GI50 [2] of less than 0.0149 µM. It also gave a TGI [2] of 0.0241 µM, a GI50 [3] of 0.0299 µM and a TGI [3] greater than 100 µM. For the same compound, the GI50 [4] was 0.0319 µM, the TGI [4] was greater than 100 µM and the GI50 [5] was 0.0342 µM. It also gave a TGI [5] greater than 100 µM, a GI50 [7] of less than 0.0191 µM and a TGI [7] greater than 100 µM. The TGI [8] was greater than 100 µM, the GI50 [9] was 0.0257 µM and the TGI [9] was greater than 100 µM. It also gave a TGI [10] greater than 100 µM.

CC[C@@]1(O)C(=O)OCc2c1cc1n(c2=O)Cc2cc3cc4c(cc3nc2-1)OCO4 was tested, and the TGI [1] was 0.166 µM and 0.051 µM, the GI50 [2] was 0.0135 µM and the TGI [2] was 0.0793 µM. For the same compound, the GI50 [3] was 0.204 µM, the TGI [3] was 0.173 µM and 0.997 µM and the TGI [4] was greater than 58.9 µM. The TGI [5] was greater than 100 µM, the GI50 [6] was 0.0353 µM and < 0.0188 µM and the TGI [6] was 0.369 µM. The TGI [7] was greater than 100 µM, the TGI [8] was 0.0251 µM and < 0.015 µM and the GI50 [10] was 0.415 µM.

C[C@@H]1[C@H](C)N1CC(O)Cn1ccnc1[N+](=O)[O-] (stereo partly drawn) gave a TGI [2] greater than 100 µM, a TGI [3] greater than 100 µM and a TGI [4] greater than 100 µM. For the same compound, the TGI [5] was greater than 100 µM, the TGI [6] was greater than 100 µM and the TGI [7] was greater than 100 µM. It also gave a TGI [8] greater than 100 µM, a TGI [9] greater than 100 µM and a TGI [10] greater than 100 µM.
